Reference: article PMC9936538, “Structure–Activity Relationship of N-Ethyl-Hexedrone Analogues: Role of the α-Carbon Side-Chain Length in the Mechanism of Action, Cytotoxicity, and Behavioral Effects in Mice” (ACS Chemical Neuroscience, 2023)

Legend:
[1] = test system: Swiss CD-1 mice; assay: Conditioned place preference (CPP); type: in vivo; details: 10 mg/kg i.p.
Description: Male Swiss CD-1 mice (Janvier, Le Genest, France) weighing 30–35 g (6–8 weeks old), housed in temperature-controlled conditions (22 ± 1 °C) under a 12 h light/dark cycle and with free access to food and drinking water (standard laboratory diet, Panlab SL, Barcelona, Spain), were randomly assigned to an experimental group. Efforts were made to minimize animal use and suffering.
The potential of the studied compounds to induce reward was determined using a place conditioning paradigm, as described.[6] For this experiment, an apparatus with two distinct compartments, with differences in tactile and visual cues, communicated by a central corridor, has been used. In brief, CPP was performed in three phases: preconditioning test, conditioning, and postconditioning test. During the preconditioning phase (day 0), mice were placed in the middle of the corridor and had free access to both compartments for 15 min. The time spent in each compartment was recorded and monitored using a specific tracking software (Smart 3.0 Panlab, Barcelona, Spain). […] In the alternative session, mice received a saline i.p. injection and were placed for 20 min in the other compartment. Mice in the control group received a saline injection in every session. The compartment and session in which mice received the drug were randomized. On the test day (postconditioning phase), the same conditions as in the preconditioning phase were applied. A preference score was calculated as the difference between the time spent in the drug-paired compartment in the postconditioning test minus the time spent in the preconditioning phase.

[2] = Cytotoxicity in NGF-differentiated PC12 cells, WST-8 cell viability assay; type: cell-based; details: rat, WST-8, 24 h exposure, mean ± SEM of 3–4 experiments, read-out: LC50 (approximated), cell viability
Description: Pheochromocytoma cells (PC12) cells were cultured in collagen-coated dishes in DMEM supplemented with heat-inactivated 5% FBS, 10% horse serum, 10 mM HEPES, 2 mM glutamine, 25 UI/mL penicillin, and 25 μg/mL streptomycin (maintenance medium) and grown at 37 °C in a humidified 5% CO2 atmosphere. Cell differentiation was performed as described[54] with minor modifications. In brief, cells were seeded (250.000 cells/well) onto 96-well plates in the maintenance medium, and after 24 h, the medium was changed to a differentiation medium containing 50 ng/mL NGF. After 24 h, neurite outgrowth was already apparent.
Treatments with different concentrations of the drug in DMEM were performed 48 h after cell differentiation. 10 μL of the tested drug was added per well, in triplicate, and cells were incubated for 24 h at 37 °C in a humidified 5% CO2 atmosphere. Thereafter, the medium was removed and immediately replaced with a maintenance medium. 10 μL of the CCK-8 Cell Counting Kit, based on 2-(2-methoxy-4-nitrophenyl)-3-(4-nitrophenyl)-5-(2,4-disulfophenyl)-2H-tetrazolium, monosodium salt (WST-8), was added per well and was incubated for 2 h at 37 °C in a humidified 5% CO2 atmosphere. This method has been defined as a good alternative to the 3-(4,5-dimethylthiazol-2-yl)-2,5-diphenyltetrazoliumbromide (MTT) assay.[63] Optical density was measured at 450 nm, using a microplate reader.
(§1) For in vitro assays, data were normalized with 100% defined as the mean of the technical replicates in the control group and expressed as mean ± SEM. Nonlinear regression was used to fit the different competition curves. Data were plotted and best fitted to a sigmoidal dose–response curve from which an IC50 or LC50 value was obtained. Transporter ratios were calculated as (1/DAT IC50: 1/SERT IC50). Although IC50 values at inhibiting 5-HT uptake for some compounds tested are expressed as >100 μM for clarity purposes, DAT/SERT ratios were calculated with the original raw data. The Cheng–Prusoff equation was used to calculate Ki (affinity): Ki = EC50/(1 + [radioligand concentration/Kd]).[65] The sample size for behavioral experiments was determined using GPower software. One-way or two-way ANOVA, and subsequent Tukey’s posthoc test, conducted only if F was significant, was used to determine the effects of cathinones on cytotoxicity, HLA, OF, and CPP experiments. The α error probability was set at 0.05 (p < 0.05). The exact size group for the behavioral experiments is shown in the corresponding figure legends. All statistic calculations were carried out using GraphPad Prism (GraphPad software, San Diego, CA, USA).

[3] = target: T1, hSERT (Homo sapiens, UniProt P31645); assay: Transporter binding, [3H]imipramine binding at hSERT (HEK293 membranes); details: membranes of transfected HEK293 cells; mean ± SEM of four independent experiments; read-out: [3H]imipramine binding at hSERT, Ki
T1 construct: expressed in transfected cells; host or cells: HEK293
Description: (§2) For membrane preparation, cells were harvested from 80 to 90% confluent dishes. HEK293 cells were washed with ice-cold phosphate-buffered saline (PBS), mechanically detached from the dish using a plastic scraper, and pelleted by centrifugation (400g for 10 min at 4 °C). The pellet was resuspended in HME buffer (20 mM HEPES NaOH, 1 mM EDTA, 2 mM MgCl2; pH 7.4), subjected to two freeze–thaw cycles in liquid nitrogen and homogenized through sonication at 4 °C. Membranes were then collected by centrifugation (40,000g for 30 min at 4 °C) and resuspended in an appropriate volume of HME buffer. The different membrane preparations aliquots were kept at −80 °C. Protein concentration was determined using the Bio-Rad Protein Reagent (Bio-Rad Laboratories, Hercules, CA).
(§3) Binding assays were performed as described.[6] […] This nonspecific binding also allows subtracting from the total binding values of the binding to other components such as membrane lipids or microfiber filters. Incubation was performed for 1 h at 22 °C. Binding reactions are stopped by rapid filtration of the membranes through GF/C glass microfiber filters presoaked with 0.5% polyethyleneimine and rapid washing with ice-cold wash buffer (120 mM NaCl, 2 mM MgCl2, 10 mM Tris, and 100 μM ZnCl2 for hDAT, and […], 2 mM MgCl2, and 10 mM Tris, for hSERT). Thereafter, the filters are placed into vials, a scintillation cocktail is added and trapped radioactivity is quantified by liquid scintillation counting. Specific binding of each drug to the transporter was defined as the difference between total binding (binding buffer in absence of the drug) and nonspecific binding. For each cathinone, four independent experiments carried out on duplicates were performed.
as §1, with “Although IC50 values at inhibiting 5-HT uptake for some compounds tested are expressed as >100 μM for clarity purposes, DAT/SERT ratios were calculated with the original raw data.” left out

[4] = target: T1, hSERT; assay: Monoamine uptake inhibition, [3H]5-HT uptake at hSERT in transfected HEK293 cells; type: cell-based; details: transfected HEK293 cells; mean ± SEM of four independent experiments; read-out: [3H]5-HT uptake at hSERT, IC50
Description: (§4) Human embryonic kidney cells (HEK293) stably transfected with the human DAT and SERT were used for both the uptake inhibition and transporter binding assays.[6] Cells were cultured in DMEM supplemented with heat-inactivated 10% fetal bovine serum (FBS), […], and 100 U/mL penicillin at 37 °C in a 5% CO2 humidified atmosphere. Geneticin (G418; 50 μg/mL) was added to maintain the selection process. Upon approximately 80% confluence, cells were washed with 5 mL of phosphate-buffered saline (PBS) and 1 mL of trypsin/EDTA was added. After 3 min, 9 mL of DMEM was added to stop cell trypsinization. If necessary, centrifugation was performed to pellet the cells. Cells were then resuspended, counted, and seeded onto poly-D-lysine coated (24 h/prior to the experiment) 96-well plates at a density of 0.36 million cells per well for the uptake inhibition assays.
(§5) Assays were performed as previously described.[8] On the test day, the medium was removed from the cell culture 96-well plates and immediately replaced with 200 μL of Krebs-HEPES-buffer (KHB; 10 mM HEPES, 120 mM NaCl, 3 mM KCl, 2 mM CaCl2·2H2O, 2 mM MgCl2·6H2O supplemented with 20 mM D-glucose; pH 7.3). To ensure equilibrated conditions, cells were incubated with different concentrations of the drugs in KHB at a final volume of 50 μL/well for 5 min (preincubation). The preincubation solution was removed, and cells were incubated with the tritiated compounds, 0.02 μM [^3H]MPP^+ for hDAT and 0.1 μM [^3H]5-HT for hSERT, together with various concentrations of the test drugs in KHB. The uptake incubation times were 3 min for hDAT and 1 min for hSERT. The reaction was stopped by rapid removal of the incubation solution and washout with ice-cold KHB. Cells were lysed with 1% sodium dodecyl sulfate, and lysates were subsequently transferred to vials containing scintillation fluid. Radioactivity was quantified with a beta-scintillation counter (PerkinElmer, Waltham, MA, USA). The uptake in the absence of the test drugs was normalized to 100%, and the uptake in the presence of various concentrations of cathinones was expressed as a percentage thereof. […] Four independent experiments carried out on triplicates were performed.
as §1, with “Although IC50 values at inhibiting 5-HT uptake for some compounds tested are expressed as >100 μM for clarity purposes, DAT/SERT ratios were calculated with the original raw data.” left out

[5] = target: T2, hDAT (Homo sapiens, UniProt Q01959); assay: Transporter binding, [3H]WIN 35,428 binding at hDAT (HEK293 membranes); details: membranes of transfected HEK293 cells; mean ± SEM of four independent experiments; read-out: [3H]WIN 35,428 binding at hDAT, Ki
T2 construct: expressed in transfected cells; host or cells: HEK293
Description: as §2, §3
as §1, with “Although IC50 values at inhibiting 5-HT uptake for some compounds tested are expressed as >100 μM for clarity purposes, DAT/SERT ratios were calculated with the original raw data.” left out

[6] = target: T2, hDAT; assay: Monoamine uptake inhibition, [3H]MPP+ uptake at hDAT in transfected HEK293 cells; type: cell-based
Description: as §4, §5
as §1, with “Although IC50 values at inhibiting 5-HT uptake for some compounds tested are expressed as >100 μM for clarity purposes, DAT/SERT ratios were calculated with the original raw data.” left out

T2 sequence (Q01959 whole entry): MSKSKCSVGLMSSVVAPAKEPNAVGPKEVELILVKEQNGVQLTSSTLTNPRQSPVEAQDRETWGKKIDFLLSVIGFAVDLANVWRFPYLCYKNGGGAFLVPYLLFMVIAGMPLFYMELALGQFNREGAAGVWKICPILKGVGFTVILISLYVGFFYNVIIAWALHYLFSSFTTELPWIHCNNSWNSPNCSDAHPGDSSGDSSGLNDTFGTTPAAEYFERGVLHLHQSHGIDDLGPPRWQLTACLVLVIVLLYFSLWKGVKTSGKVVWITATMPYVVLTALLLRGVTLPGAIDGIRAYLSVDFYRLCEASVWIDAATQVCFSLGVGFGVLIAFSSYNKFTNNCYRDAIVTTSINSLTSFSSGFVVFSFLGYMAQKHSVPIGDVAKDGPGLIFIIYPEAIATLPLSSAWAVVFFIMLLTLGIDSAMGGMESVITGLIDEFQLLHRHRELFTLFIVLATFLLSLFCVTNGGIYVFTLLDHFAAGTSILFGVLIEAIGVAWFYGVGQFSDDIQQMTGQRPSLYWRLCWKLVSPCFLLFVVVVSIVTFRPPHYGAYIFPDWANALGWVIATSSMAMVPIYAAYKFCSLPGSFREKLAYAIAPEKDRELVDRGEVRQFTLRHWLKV
T1 sequence (P31645 whole entry): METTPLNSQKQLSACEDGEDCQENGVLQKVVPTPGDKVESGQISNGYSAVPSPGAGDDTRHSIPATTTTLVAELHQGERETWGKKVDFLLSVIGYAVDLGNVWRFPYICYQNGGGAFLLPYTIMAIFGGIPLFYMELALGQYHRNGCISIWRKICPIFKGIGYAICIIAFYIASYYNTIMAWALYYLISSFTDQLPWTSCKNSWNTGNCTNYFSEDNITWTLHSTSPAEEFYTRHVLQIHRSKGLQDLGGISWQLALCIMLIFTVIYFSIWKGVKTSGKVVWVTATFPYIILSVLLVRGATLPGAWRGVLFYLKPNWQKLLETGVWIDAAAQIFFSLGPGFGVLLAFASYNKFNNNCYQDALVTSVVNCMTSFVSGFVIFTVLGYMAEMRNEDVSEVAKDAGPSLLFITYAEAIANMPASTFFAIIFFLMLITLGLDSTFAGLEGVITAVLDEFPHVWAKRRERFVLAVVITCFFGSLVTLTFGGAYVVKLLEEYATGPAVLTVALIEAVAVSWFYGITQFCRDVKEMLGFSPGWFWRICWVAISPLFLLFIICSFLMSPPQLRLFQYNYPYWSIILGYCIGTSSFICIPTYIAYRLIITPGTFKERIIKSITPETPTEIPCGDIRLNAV

Structure (SMILES) | CPP rewarding effect vs saline [1] | CC50 at 24 h [2] [µM] | Ki [3] [µM] | IC50 [4] [µM] | Ki [5] [µM] | hDAT/hSERT inhibition ratio ([6]; 1/DAT IC50:1/SERT IC50, calculated with the original raw data) | IC50 ([6]; transfected HEK293 cells, mean ± SEM of four independent experiments, read-out: [3H]MPP+ uptake at hDAT, IC50) [µM]
COC(=O)[C@H]1[C@@H](OC(=O)c2ccccc2)C[C@@H]2CC[C@H]1N2C [Cocaine, reference compound] | induced rewarding effects | – | – | – | – | – | –
CN[C@@H](C)Cc1ccccc1 [Meth, methamphetamine, reference compound] | – | 8730 | – | – | – | – | –
CCCC(C(=O)c1ccccc1)N1CCCC1 (stereo not drawn) [α-PVP, alpha-pyrrolidinovalerophenone, reference compound] | induced rewarding effects | – | > 100 | > 100 | 0.019 | 3222 | 0.124
